{"source": "ChEMBL document CHEMBL5678803", "about": "“Selective blockade of TRPA1 channel attenuates pathological pain without altering noxious cold sensation or body temperature regulation” (Pain, 2011)", "key": {"[1]": {"biological_target": "Transient receptor potential cation channel subfamily A member 1 (Rattus norvegicus, UniProt Q6RI86)", "sequence (Q6RI86 whole entry)": "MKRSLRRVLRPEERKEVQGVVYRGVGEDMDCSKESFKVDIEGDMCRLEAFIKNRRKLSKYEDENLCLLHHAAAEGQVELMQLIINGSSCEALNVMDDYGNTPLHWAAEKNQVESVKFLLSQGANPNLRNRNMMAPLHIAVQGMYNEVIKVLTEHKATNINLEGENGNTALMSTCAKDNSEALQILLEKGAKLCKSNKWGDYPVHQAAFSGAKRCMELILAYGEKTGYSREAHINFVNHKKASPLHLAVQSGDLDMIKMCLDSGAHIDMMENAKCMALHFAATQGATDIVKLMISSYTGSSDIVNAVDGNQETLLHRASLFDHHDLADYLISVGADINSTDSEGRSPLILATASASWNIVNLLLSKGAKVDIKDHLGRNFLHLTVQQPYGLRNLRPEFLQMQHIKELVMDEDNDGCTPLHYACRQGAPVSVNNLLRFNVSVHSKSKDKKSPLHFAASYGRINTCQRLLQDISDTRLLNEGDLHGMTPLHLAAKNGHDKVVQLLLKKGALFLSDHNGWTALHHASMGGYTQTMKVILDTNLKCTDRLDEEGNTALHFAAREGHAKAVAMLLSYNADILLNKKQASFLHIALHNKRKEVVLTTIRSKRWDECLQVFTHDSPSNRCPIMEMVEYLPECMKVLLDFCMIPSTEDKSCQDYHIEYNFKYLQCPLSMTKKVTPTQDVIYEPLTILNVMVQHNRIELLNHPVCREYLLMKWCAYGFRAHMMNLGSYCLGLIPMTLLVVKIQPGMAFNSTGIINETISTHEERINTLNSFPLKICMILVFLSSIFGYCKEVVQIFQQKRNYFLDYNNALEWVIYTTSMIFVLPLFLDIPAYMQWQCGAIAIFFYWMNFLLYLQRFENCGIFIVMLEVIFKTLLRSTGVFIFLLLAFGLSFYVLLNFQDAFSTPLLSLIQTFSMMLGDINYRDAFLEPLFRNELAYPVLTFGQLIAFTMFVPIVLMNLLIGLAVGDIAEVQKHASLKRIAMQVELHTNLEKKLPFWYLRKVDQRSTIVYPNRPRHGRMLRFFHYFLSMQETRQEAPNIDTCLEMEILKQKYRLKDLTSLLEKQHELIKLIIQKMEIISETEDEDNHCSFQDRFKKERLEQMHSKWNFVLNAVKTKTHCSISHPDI", "test": "Antagonist activity at GFP-tagged rat TRPA1 transfected in HEK293F cells assessed as reduction in AITC-induced inward current at -60 mV holding potential by electrophysiological recordings", "format": "cell-based"}, "[2]": {"test": "Chemical reactivity of compound to La antigen incubated overnight by LC-MS analysis", "format": "physicochemical"}, "[3]": {"biological_target": "T1, Transient receptor potential cation channel subfamily V member 2 (Rattus norvegicus) (UniProt Q9WUD2)", "T1 sequence (whole entry)": "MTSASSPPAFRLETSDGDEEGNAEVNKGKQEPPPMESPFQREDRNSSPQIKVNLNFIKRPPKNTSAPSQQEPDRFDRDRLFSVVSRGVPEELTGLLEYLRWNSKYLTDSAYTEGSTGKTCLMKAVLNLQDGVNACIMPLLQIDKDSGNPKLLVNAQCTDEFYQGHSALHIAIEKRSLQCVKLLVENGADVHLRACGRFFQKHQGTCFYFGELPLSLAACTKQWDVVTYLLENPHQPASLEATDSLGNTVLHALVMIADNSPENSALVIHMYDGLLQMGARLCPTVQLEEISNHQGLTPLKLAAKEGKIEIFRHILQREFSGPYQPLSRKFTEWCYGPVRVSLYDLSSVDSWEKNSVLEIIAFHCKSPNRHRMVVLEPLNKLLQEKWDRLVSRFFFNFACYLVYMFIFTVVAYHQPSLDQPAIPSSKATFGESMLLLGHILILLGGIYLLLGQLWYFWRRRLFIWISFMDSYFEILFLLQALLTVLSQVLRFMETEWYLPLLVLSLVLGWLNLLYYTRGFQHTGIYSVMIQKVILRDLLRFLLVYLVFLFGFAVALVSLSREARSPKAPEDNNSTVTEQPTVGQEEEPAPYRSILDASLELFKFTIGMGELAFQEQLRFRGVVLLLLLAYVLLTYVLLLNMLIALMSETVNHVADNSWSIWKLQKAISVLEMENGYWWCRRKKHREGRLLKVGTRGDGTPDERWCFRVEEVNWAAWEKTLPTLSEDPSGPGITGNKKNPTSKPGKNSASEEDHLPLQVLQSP", "test": "Antagonist activity at rat TRPV2 expressed in HEK293F cells assessed as inhibition of 2APB-induced TRPV2 channel activation by FLIPR-based Ca2+ assay relative to control", "format": "cell-based", "conditions": "concentration not given here"}, "[4]": {"test": "Drug concentration in rat at 62.1 mg/kg, po measured after 60 mins", "format": "ADME, organism-based", "conditions": "in vivo, read-out: Drug uptake"}, "[5]": {"test": "Drug concentration in rat at 20.7 mg/kg, po measured after 60 mins", "format": "ADME, organism-based", "conditions": "in vivo, read-out: Drug uptake"}, "Rattus norvegicus [6]": {"system": "Rattus norvegicus", "test": "Antiallodynic activity in CFA-induced mechanical allodynia Sprague-Dawley rat model assessed as attenuation of mechanical allodynia at 6.2 to 62.1 mg/kg, po administered with compound for 1 hrs and measured 48 hrs after CFA injection", "format": "functional, organism-based", "conditions": "dose 6.2-62.1 mg/kg, time 49.0 hrs"}, "[7]": {"biological_target": "Transient receptor potential cation channel subfamily A member 1 (Rattus norvegicus) (UniProt Q6RI86)", "sequence (Q6RI86 whole entry)": "as the sequence (Q6RI86 whole entry) above", "test": "Antagonist activity at endogenous TRPA1 in rat DRG neurons assessed as blockade of bradykinin-induced CGRP release at 5 micromol/L", "format": "cell-based", "conditions": "DRG neuron, filed as antagonist, dose 5.0 µmol/L"}, "[8]": {"test": "Toxicity in CD1 mouse assessed as effect on total forepaw shivering response at 5 degreeC at 62.1 mg/kg, po measured after 4 mins by noxious cold plate assay", "format": "organism-based", "conditions": "in vivo"}, "[9]": {"biological_target": "Sodium-dependent dopamine transporter (Homo sapiens) (UniProt Q01959)", "sequence (Q01959 whole entry)": "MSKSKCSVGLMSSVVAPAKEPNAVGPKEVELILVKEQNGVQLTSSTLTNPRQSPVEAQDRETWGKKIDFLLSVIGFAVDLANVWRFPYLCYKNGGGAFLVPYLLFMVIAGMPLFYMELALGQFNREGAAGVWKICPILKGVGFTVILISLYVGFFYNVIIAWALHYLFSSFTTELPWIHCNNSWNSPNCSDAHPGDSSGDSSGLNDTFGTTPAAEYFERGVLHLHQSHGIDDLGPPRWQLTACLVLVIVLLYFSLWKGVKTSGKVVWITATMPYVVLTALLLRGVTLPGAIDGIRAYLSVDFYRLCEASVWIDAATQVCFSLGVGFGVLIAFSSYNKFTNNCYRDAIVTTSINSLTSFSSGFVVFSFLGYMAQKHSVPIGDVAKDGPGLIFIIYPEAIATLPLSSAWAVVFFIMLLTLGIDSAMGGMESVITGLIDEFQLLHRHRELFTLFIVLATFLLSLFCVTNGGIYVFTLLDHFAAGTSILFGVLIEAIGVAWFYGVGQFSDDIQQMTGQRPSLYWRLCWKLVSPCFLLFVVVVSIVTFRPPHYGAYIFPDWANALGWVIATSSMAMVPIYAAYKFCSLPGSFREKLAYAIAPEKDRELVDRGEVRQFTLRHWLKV", "test": "Inhibition of dopamine transporter (unknown origin) at 10 micromol/L by radioligand binding assay", "conditions": "dose 10.0 µmol/L"}, "[10]": {"biological_target": "T2, Transient receptor potential cation channel subfamily V member 3 (Homo sapiens, UniProt Q8NET8)", "T2 sequence (Q8NET8 whole entry)": "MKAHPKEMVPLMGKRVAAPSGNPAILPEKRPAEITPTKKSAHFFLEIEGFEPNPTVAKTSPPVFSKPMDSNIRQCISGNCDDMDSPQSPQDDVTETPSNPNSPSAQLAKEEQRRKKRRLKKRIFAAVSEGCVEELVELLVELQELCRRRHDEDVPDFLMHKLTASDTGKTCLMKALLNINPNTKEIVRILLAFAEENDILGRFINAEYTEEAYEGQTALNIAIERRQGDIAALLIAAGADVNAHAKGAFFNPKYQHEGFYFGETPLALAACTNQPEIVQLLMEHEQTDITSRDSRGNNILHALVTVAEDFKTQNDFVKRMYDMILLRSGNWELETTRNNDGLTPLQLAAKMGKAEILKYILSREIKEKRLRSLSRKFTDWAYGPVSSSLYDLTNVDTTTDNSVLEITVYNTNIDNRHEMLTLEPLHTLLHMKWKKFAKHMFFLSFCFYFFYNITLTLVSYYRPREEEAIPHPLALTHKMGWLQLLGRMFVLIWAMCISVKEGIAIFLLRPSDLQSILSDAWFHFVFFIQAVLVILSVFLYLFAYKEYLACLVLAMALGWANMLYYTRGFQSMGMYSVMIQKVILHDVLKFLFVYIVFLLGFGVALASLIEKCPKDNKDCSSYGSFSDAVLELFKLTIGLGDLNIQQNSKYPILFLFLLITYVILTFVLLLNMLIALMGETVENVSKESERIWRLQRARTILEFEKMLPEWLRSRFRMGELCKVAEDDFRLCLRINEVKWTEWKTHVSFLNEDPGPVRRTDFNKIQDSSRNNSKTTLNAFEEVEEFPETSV", "test": "Antagonist activity at endogenous TRPV3 in human epithelial cells assessed as inhibition of 2APB-induced increase in intracellular Ca2+ level by FLIPR-based Ca2+ assay", "format": "cell-based, Epithelial cell"}, "[11]": {"biological_target": "Transient receptor potential cation channel subfamily A member 1 (Rattus norvegicus) (UniProt Q6RI86)", "test": "Antagonist activity at endogenous TRPA1 in rat DRG neurons assessed as blockade of AITC-induced Ca2+ signals at 1 micromol/L by […] Ca2+ imaging analysis", "format": "cell-based", "conditions": "DRG neuron, filed as antagonist, dose 1.0 µmol/L"}, "[12]": {"test": "Toxicity in Sprague-Dawley rat assessed as effect on tail withdrawal latency to hot water immersion at 55 degreeC at 62.1 mg/kg, po by tail immersion test", "format": "organism-based", "conditions": "in vivo"}, "[13]": {"biological_target": "T1, Transient receptor potential cation channel subfamily V member 2 (Rattus norvegicus)", "test": "Activation of rat TRPV2 expressed in HEK293F cells upto 100 micromol/L", "format": "cell-based", "conditions": "dose <= 100.0 µmol/L"}, "[14]": {"test": "Toxicity in Sprague-Dawley rat assessed as effect on heart rate", "conditions": "in vivo"}, "[15]": {"test": "Oral bioavailability in rat at 2 mg/kg", "format": "ADME, organism-based", "conditions": "in vivo"}, "[16]": {"test": "Aqueous solubility of compound", "format": "physicochemical", "conditions": "buffer"}, "[17]": {"test": "Tmax in rat at 2 mg/kg, po", "format": "ADME, organism-based", "conditions": "in vivo"}, "Rattus norvegicus [18]": {"system": "Rattus norvegicus", "test": "Antiallodynic activity in acetone-induced CCI Sprague-Dawley rat model assessed as attenuation of acetone induced cold allodynia at 62.1 mg/kg, po measured after 1 hrs relative to control", "format": "functional"}, "[19]": {"test": "Toxicity in CD1 mouse assessed as effect on first jump latency at 0 degreeC at 62.1 mg/kg, po measured after 4 mins by noxious cold plate assay", "format": "organism-based", "conditions": "in vivo"}, "[20]": {"test": "Stability of compound in aqueous tetrahydrofuran buffer at pH 7.5 assessed as compound remaining incubated for 16 hrs in presence of glutathione by nuclear magnetic resonance spectroscopy based LC-MS analysis", "format": "physicochemical", "conditions": "aqueous tetrahydrofuran buffer with glutathione, read-out: Stability"}}, "note": "Activity calls are given as the source filed them. The rule behind the calls is not given here."}
{"compound": "CCC(=N\\O)/C(C)=C/c1ccc(F)cc1", "note": "[A-079]", "values": [{"measurement": "IC50", "setting": "[1]", "result": 0.101, "unit": "µM"}, {"measurement": "Stability", "setting": "[2]", "result": "Stable"}, {"measurement": "inhibition", "setting": "[3]", "result": "< 20", "unit": "%"}, {"measurement": "concentration at 1 h", "setting": "[4]", "result": 11.8, "unit": "µM"}, {"measurement": "concentration at 1 h", "setting": "[5]", "result": 6.22, "unit": "µM"}, {"measurement": "Activity", "setting": "Rattus norvegicus [6]", "result": "inactive"}, {"measurement": "Activity", "setting": "[7]", "result": "Active"}, {"measurement": "Activity", "setting": "[8]", "result": "Non-Toxic"}, {"measurement": "inhibition", "setting": "[9]", "result": 43, "unit": "%"}, {"measurement": "IC50", "setting": "[10]", "result": "> 100", "unit": "µM"}, {"measurement": "Activity", "setting": "[11]", "result": "Active"}, {"measurement": "Activity", "setting": "[12]", "result": "Non-Toxic"}, {"measurement": "Activity", "setting": "[13]", "result": "inactive"}, {"measurement": "Activity", "setting": "[14]", "result": "Non-Toxic"}, {"measurement": "bioavailability", "setting": "[15]", "result": 37, "unit": "%"}, {"measurement": "solubility", "setting": "[16]", "result": "> 300", "unit": "µM"}, {"measurement": "Tmax", "setting": "[17]", "result": 30, "unit": "min"}, {"measurement": "Activity", "setting": "Rattus norvegicus [18]", "result": 46.4, "unit": "%"}, {"measurement": "Activity", "setting": "[19]", "result": "Non-Toxic"}, {"measurement": "remaining at 16 h", "setting": "[20]", "result": "> 95", "unit": "%"}]}
